Measured values reported in PMC7749107, “Identification and functional characterization of the first molluscan neuromedin U receptor in the slug, Deroceras reticulatum” (Scientific Reports, 2020).
Entries after “also recorded” stand apart in the source; their conditions may differ. Like-named read-outs stand apart in the source and are kept apart here. Where a SMILES comes first, the peptide text is derived from it.

Columns and labels:
DretNmU-Rb = target: T1, DretNmU-Rb (Deroceras reticulatum, UniProt A0A888YNJ5); assay: Calcium mobilisation (FLIPR Calcium 6 fluorescence) receptor activation assay, Sf9 cells stably expressing DretNmU-Rb; format: cell-based; conditions: for Binding activity (receptor response, ∆fluorescence) at single concentration: 500 nM peptide, three to four replicates, result in words
T1 sequence (A0A888YNJ5 1-502): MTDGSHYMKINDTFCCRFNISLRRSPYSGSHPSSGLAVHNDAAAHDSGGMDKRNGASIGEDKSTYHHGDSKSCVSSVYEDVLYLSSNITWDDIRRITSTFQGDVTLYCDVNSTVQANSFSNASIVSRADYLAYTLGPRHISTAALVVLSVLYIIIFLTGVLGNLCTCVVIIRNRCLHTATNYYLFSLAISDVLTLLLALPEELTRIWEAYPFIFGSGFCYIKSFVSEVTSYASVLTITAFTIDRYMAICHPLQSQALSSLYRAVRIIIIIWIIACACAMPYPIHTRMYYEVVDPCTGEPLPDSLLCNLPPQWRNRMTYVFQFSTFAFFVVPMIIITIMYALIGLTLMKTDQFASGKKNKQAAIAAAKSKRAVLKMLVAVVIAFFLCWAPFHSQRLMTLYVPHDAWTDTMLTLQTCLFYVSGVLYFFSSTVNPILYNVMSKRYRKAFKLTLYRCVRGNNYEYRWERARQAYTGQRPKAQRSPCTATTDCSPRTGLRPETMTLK
Protocol: (§1) Sf9 cells were cultured in a 50 ml-Erlenmeyer flask while shaking at 145 rpm at 28 °C using Insectagro Sf9 Medium (Corning) supplemented with 5% heat-inactivated fetal bovine serum (HyClone, USA) and antibiotics (penicillin and streptomycin; Gibco). Three µg of either pIB/DretNmU-Ra or pIB/DretNmU-Rb plasmid was added to 100 μl of serum-free medium, and 15% CellFectin II (Invitrogen) in 100 μl serum-free medium was prepared, and both were placed at room temperature for 5 min. Samples were combined by pipetting and placed at room temperature for another 20 min. The plasmid-CellFectin II mixture was then added to a T-25 flask containing a layer of Sf9 cells covering about 70% of the surface, and incubated overnight. The next morning, the medium was replaced with fresh medium containing 50 μg/ml blasticidin. […] When culture was confluent, the recombinant cells were lifted and transferred to suspension cultures and grown until the exponential growth phase, and then stock cultures were frozen in liquid nitrogen. These frozen stock cell lines were thawed, cultivated for several passages in media containing 20 μg/ml blasticidin, and used for the ligand binding assays.
(§2) Two days before the binding assay, ~ 50,000 Sf9 cells expressing the DretNmU-Ra or -Rb from suspension cultures were dispensed into each well of a black 96-well plate (Corning C3603) and incubated at 28 °C overnight. At 48 h, cells were rinsed once with 100 μl of fresh medium without FBS. After removing the media, cells were incubated with 95 μl of 1 × FLIPR Calcium 6 reagent (Molecular Devices, USA) containing 2.5 mM probenecid at room temperature in the dark for 1 h. The Calcium 6 reagent-loaded cells were transferred to the Flexstation 3 multi-mode microplate reader (Molecular Devices) to measure fluorescence change (∆fluorescence) before and after loading 5 μl of peptide ligands (20×), detecting emission at 535 nm with excitation at 485 nm. Fluorescence measurements from each well on the column were taken every 5 s for 4 min. The peptide ligand was added by automatic pipettor once at 30 s from the beginning, and 5 μl of 5 μM ionomycin was added at 3 min to confirm calcium activity. Baseline fluorescence was determined by averaging 5 time points from each well prior to treatment with ligand and the resulting response was expressed as a percent increase in fluorescence relative to the baseline value.
(§3) For the initial screening and structure–activity tests, each cell line was exposed to a single concentration of 500 nM of each peptide or control. For the dosage-response assay, threefold serial dilutions of selected ligands with water were used, giving final ligand concentrations between 8 pM and 1.5 μM. The mean response from four wells receiving the same treatment in the same plate was regarded as one replicate, and at least three replicates from independent assays on different cell plates were analyzed. Data were transformed into a log scale and fit into the non-linear regression curve. EC50 values were obtained by statistical analysis using the sum of squares F-test function using GraphPad Prism version 8.0 (San Diego, CA, USA).

DretNmU-Ra = target: T2, DretNmU-Ra (Deroceras reticulatum, UniProt A0A888YNE3); assay: Calcium mobilisation (FLIPR Calcium 6 fluorescence) receptor activation assay, Sf9 cells stably expressing DretNmU-Ra; format: cell-based; conditions: for Binding activity (receptor response, ∆fluorescence) at single concentration: 500 nM peptide, three to four replicates, result in words
T2 sequence (A0A888YNE3 1-505): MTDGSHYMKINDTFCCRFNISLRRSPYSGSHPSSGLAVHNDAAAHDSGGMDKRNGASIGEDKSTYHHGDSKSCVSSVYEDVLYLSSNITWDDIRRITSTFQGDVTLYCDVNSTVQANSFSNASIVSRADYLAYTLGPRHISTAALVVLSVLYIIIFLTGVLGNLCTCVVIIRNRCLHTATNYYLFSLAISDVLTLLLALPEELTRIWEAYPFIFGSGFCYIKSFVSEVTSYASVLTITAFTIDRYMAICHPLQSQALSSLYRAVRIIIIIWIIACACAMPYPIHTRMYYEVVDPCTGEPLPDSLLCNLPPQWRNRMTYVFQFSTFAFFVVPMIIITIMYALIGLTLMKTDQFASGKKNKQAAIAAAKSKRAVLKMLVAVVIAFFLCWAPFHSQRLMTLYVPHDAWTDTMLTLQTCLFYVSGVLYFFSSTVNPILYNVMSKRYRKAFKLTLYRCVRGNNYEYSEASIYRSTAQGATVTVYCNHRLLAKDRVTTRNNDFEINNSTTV
Protocol: as §1, §2, §3

Deroceras reticulatum = assay: Injection bioassay of the peptides in the slug; format: in vivo; conditions: n = 4; for Atypical behaviors after injection: 10 nmol peptide in 5 μl water injected into the foot, observed for initial 30 min, compared with water control; for Mortality after 3 days: 10 nmol peptide in 5 μl water injected into the foot of adult slugs, 18 °C
Protocol: Two peptides, QPPLPRYa and QPPVPRYa, were dissolved in purified water to obtain a 2 mM concentration and individually injected into the adult slugs (270–520 mg in weight). A Hamilton syringe was used to inject a dose of 10 nmol peptide in 5 μl water or water only for control into the posterior part of the foot of the slug (n = 4). The foot was chosen as the injection site in order to avoid possible damage to internal organs, which are primarily located underneath the mantle. […] Since the treated slugs secreted a large amount of the defensive mucus, weight loss was assessed by weighing the slugs on a VWR B2-Series Analytical Balance immediately before the treatment and again 3 days later. Post treatment weights were obtained after slugs were placed under wet conditions (slugs placed in a ventilated 8 oz plastic container lined with damp tissue paper) or under dry conditions (same container type without damp tissue paper). Slugs were placed under these conditions approximately 30 min after injection. These plastic containers were maintained in a growth chamber (Thermo Scientific Precision Model 818) at 18 °C and 12 h photoperiod. Statistical analysis was performed by One-way ANOVA followed by Dunnett’s multiple comparisons test using GraphPad Prism version 8.0 (GraphPad Software, CA, USA).

[1] = Sf9 cells stably expressing DretNmU-Rb
[2] = Sf9 cells stably expressing DretNmU-Rb, calcium fluorescence, threefold serial dilutions 8 pM to 1.5 μM, four to five replicates from independent assays, each the mean of four wells, read-out: EC50, normalized concentration-response
[3] = Sf9 cells stably expressing DretNmU-Ra
[4] = Sf9 cells stably expressing DretNmU-Ra, calcium fluorescence, threefold serial dilutions 8 pM to 1.5 μM, four to five replicates from independent assays, each the mean of four wells, read-out: EC50, normalized concentration-response

`CC[C@H](C)[C@H](NC(=O)[C@H](CCCNC(=N)N)NC(=O)[C@@H]1CCCN1C(=O)[C@H](CCCNC(=N)N)NC(=O)[C@@H]1CCCN1C(=O)[C@@H](NC(=O)[C@H](C)N)C(C)C)C(N)=O` [AVPRPRIa] (H-AVPRPRI-NH2; N-terminus assumed) was tested, and the “Binding activity (receptor response, ∆fluorescence) at single concentration” value (shortened to “Binding activity”) (DretNmU-Rb; [1]) was “evoked distinct binding”, the EC50 (DretNmU-Rb; [2]) was 12.4 nM and the “Binding activity” value (DretNmU-Ra; [3]) was “evoked distinct binding”. It also gave an EC50 (DretNmU-Ra; [4]) of 6.4 nM.

`CC(C)C[C@H](NC(=O)[C@@H]1CCCN1C(=O)[C@@H]1CCCN1C(=O)[C@@H](N)CC(N)=O)C(=O)N1CCC[C@H]1C(=O)N[C@@H](CCCNC(=N)N)C(=O)N[C@@H](Cc1ccc(O)cc1)C(N)=O` [NPPLPRYa] (H-NPPLPRY-NH2; N-terminus assumed) gave an EC50 (DretNmU-Rb; [2]) of 25.1 nM and an EC50 (DretNmU-Ra; [4]) of 32.2 nM.

With `CC(C)C[C@H](NC(=O)[C@@H]1CCCN1C(=O)[C@@H]1CCCN1C(=O)[C@@H](N)CCC(N)=O)C(=O)N1CCC[C@H]1C(=O)N[C@@H](CCCNC(=N)N)C(=O)N[C@@H](Cc1ccccc1)C(N)=O` [QPPLPRFa] (H-QPPLPRF-NH2; N-terminus assumed) the “Binding activity” value (DretNmU-Rb; [1]) was “retained normal activity”, the EC50 (DretNmU-Rb; [2]) was 128 nM and the “Binding activity” value (DretNmU-Ra; [3]) was “retained normal activity”. It also gave an EC50 (DretNmU-Ra; [4]) of 55.1 nM.

With `CC(C)C[C@H](NC(=O)[C@@H]1CCCN1C(=O)[C@@H]1CCCN1C(=O)[C@@H](N)CCC(N)=O)C(=O)N1CCC[C@H]1C(=O)N[C@@H](CCCNC(=N)N)C(=O)N[C@@H](Cc1ccc(O)cc1)C(N)=O` [QPPLPRYa] (H-QPPLPRY-NH2; N-terminus assumed) the “Atypical behaviors after injection” value (Deroceras reticulatum) was “triggered a series of distinct, atypical behaviors”, the “Mortality after 3 days” value (Deroceras reticulatum; dry conditions) was 100% and the “Mortality after 3 days” value (Deroceras reticulatum; wet conditions) was 50%. The EC50 (DretNmU-Rb) was 4.1 nM, the “Binding activity” value (DretNmU-Rb; [1]) was “evoked distinct binding” and the EC50 (DretNmU-Ra) was 1.4 nM. The “Binding activity” value (DretNmU-Ra; [3]) was “evoked distinct binding”.

For `CC(C)[C@H](NC(=O)[C@@H]1CCCN1C(=O)[C@@H]1CCCN1C(=O)[C@@H](N)CCC(N)=O)C(=O)N1CCC[C@H]1C(=O)N[C@@H](CCCNC(=N)N)C(=O)N[C@@H](Cc1ccc(O)cc1)C(N)=O` [QPPVPRYa] (H-QPPVPRY-NH2), the “Atypical behaviors after injection” value (Deroceras reticulatum) was “triggered a series of distinct, atypical behaviors”, the “Mortality after 3 days” value (Deroceras reticulatum; dry conditions) was 50% and the “Mortality after 3 days” value (Deroceras reticulatum; wet conditions) was 0%. The EC50 (DretNmU-Rb) was 12.7 nM, the “Binding activity” value (DretNmU-Rb; [1]) was “evoked distinct binding” and the EC50 (DretNmU-Ra) was 6.4 nM. For the same compound, the “Binding activity” value (DretNmU-Ra; [3]) was “evoked distinct binding”.

With “LPRYa [N-terminally truncated tetra-peptide of QPPLPRYa]” the “Binding activity” value (DretNmU-Rb; [1]) was “all activity was lost” and the “Binding activity” value (DretNmU-Ra; [3]) was “all activity was lost”.

“PLPRYa [N-terminally truncated pentapeptide of QPPLPRYa]” was tested, and the “Binding activity” value (DretNmU-Rb; [1]) was “gradual decrease of the binding ability” and the “Binding activity” value (DretNmU-Ra; [3]) was “gradual decrease of the binding ability”.

In the case of “QPPLARYa [modified QPPLPRYa, alanine replacement of P5]”, the “Binding activity” value (DretNmU-Rb; [1]) is reported as “almost completely disappeared” and the “Binding activity” value (DretNmU-Ra; [3]) is reported as “almost completely disappeared”.

For “QPPLPAYa [modified QPPLPRYa, alanine replacement of R6]”, the “Binding activity” value (DretNmU-Rb; [1]) was “almost completely disappeared” and the “Binding activity” value (DretNmU-Ra; [3]) was “almost completely disappeared”.

“QPPLPRAa [modified QPPLPRYa, alanine replacement of Y7]” was tested, and the “Binding activity” value (DretNmU-Rb; [1]) was “almost completely disappeared” and the “Binding activity” value (DretNmU-Ra; [3]) was “almost completely disappeared”.

With “QPPLPRWa [modified QPPLPRYa, C-terminal Y replaced with W]” the “Binding activity” value (DretNmU-Rb; [1]) was “dramatically reduced in its binding activity; also recorded: activity was eliminated” and the “Binding activity” value (DretNmU-Ra; [3]) was “dramatically reduced in its binding activity; also recorded: activity was eliminated”.
